Earlier results, collected in patent publication US20110300232A1, “EFFECTS OF NITRIC OXIDE (NO) AND iNOS ON EXPRESSION AND SIGNAL TRANSDUCTION IN CANCER AND ITS USE IN DRUG DISCOVERY AND CANCER THERAPY DESIGN” (priority 2010, published 2011).

Columns and labels:
HIF-α = settings: for effect on HIF-α expression: NO donor exposure, FIG. 4A and 4B, MCF-7
[1] = not given; remark: listed apart in the source
p53 = settings: high levels of NO

Compound: CCN(CC)/[N+]([O-])=N/[O-].[Na+] [DEA/NO]
- effect on HIF-α expression (HIF-α): did not regulate HIF-α expression
- duration of NO level provided in media: only an hour

Compound: NCCN(CCN)/[N+]([O-])=N/O [DETA/NO]
- effect on HIF-α expression (HIF-α): stabilizing the HIF-α expression
- duration of NO level provided in media: several hours

Compound: [N]=O [NO, Nitric oxide]
- NO concentration required for HIF-α stabilization (HIF-α; low concentration of NO): 100-200 nm
- half-life in the body [1]: 1 to 5 s
- NO level that stimulates p53 activation, causing apoptosis (p53): more than 500 nm

Compound: NCCCNCCCCN(CCCN)/[N+]([O-])=N/O [Sper/NO]
- effect on HIF-α expression (HIF-α): stabilizing the HIF-α expression
- duration of NO level provided in media: several hours
